# Assays:
# [1] = tested on: celery (Apium graveolens); experiment: Vanadyl ascorbate in cultivation of celery; format: in vivo; settings: for root mass increase compared to plants from the control object: celery; for Chlorophyll / Dry mass of leaves / Dry mass of root / Flavonoids / Mass of celery leaves / Mass of celery root: sprayed three times
# Experimental: Cultivation of celery (Apium graveolens) was carried out in a plastic tunnel in pots with a capacity of 3 l filled with peat substrate. Vanadyl ascorbate at a 1:2 molar ratio of V:Asc (VO(C6H7O6)2.2H2O) was applied three times during the entire cultivation in BBCH phases: 4-16 (4-6 leaves), 19-40 (10 and more leaves) and 42-44 (root development) in the form of fine-droplet spraying. Two vanadium doses of 5 g V/ha (0.001%) and 10 g V/ha (0.002%) were used. The experiment was performed in a random block system, combinations were drawn in 4 blocks. There were 20 celery plants for each combination.
# The mass of celery leaves has been increased both by the application of vanadium in the amount of 5 g and 10 g/ha. […] For a smaller dose, root mass has increased by 23%, while for a dose of 10 g V/ha by 11% compared to plants from the control object. A dose of 5 g V/ha positively influenced the quality parameters of celery, the dry mass of leaves, the content of chlorophyll and flavonoids have increased. However, a dose of 10 g V/ha contributed to the increase in dry mass of leaves and to the increase in content of flavonoids. The results of this experiment indicate a biostimulatory effect of low doses of vanadium on the utility yield increase of vegetable plants and its qualitative parameters.
# [2] = Study of solution stability for a given complex; format: physicochemical; settings: complexes in the form of solutions
# [3] = tested on: diseases affecting the plant spikes; experiment: Vanadyl ascorbate on wheat of Figura type, diseases affecting the plant spikes; format: in vivo; settings: initial studies, analogous to the titanium complex
# Description: In the case of diseases attacking spikes, on the control combination, infestation by Cladosporium herbarum at 20%, by Septoria nodorum at 10% and by Gibberella avenacea at 10% were found. On sprayed plants, infestations were 1%, 1% and 0% respectively.
# [4] = tested on: Radish (Raphanus sativus) of Ronda type; experiment: Vanadyl ascorbate in cultivation of radish; format: in vivo; settings: foliar twice, 0.004% V, total 20 g V/ha
# Experimental: Radish (Raphanus sativus) of Ronda type was cultivated in a plastic tunnel in a peat substrate. Vanadyl ascorbate at a 1:2 molar ratio of V:Asc (VO(C6H7O6)2.2H2O) was applied in the form of foliar spraying twice during the entire cultivation, vanadium concentration in the working liquid was 0.004% V. In two applications, the total vanadium dose per hectare was 20 g V/ha. The experiment was performed in a random block system, combinations were drawn in 4 blocks. There were 20 plants for each combination.
# Foliar application of vanadyl ascorbate VO(C6H7O6)2.2H2O has increased the mass of radish root by 12% compared to the control plants. […] Furthermore, in vanadium treated plants, the content of flavonoids responsible for protecting plant cells from oxidative stress, which is caused, among others, by through drought, has increased almost twice as compared to the control.
# [5] = tested on: fusarium foot and root rot; experiment: Fusarium foot and root rot on wheat; format: in vivo; settings: wheat of Figura type, initial studies, analogous to the titanium complex
# iceberg lettuce = experiment: Vanadyl ascorbate in cultivation of iceberg lettuce, head mass, chlorophyll, flavonoids, nutrients; format: in vivo, Lactuca sativa; settings: foliar twice, total 10 g V/ha
# Description: Iceberg cabbage lettuce (Lactuca sativa) of Rubette type was cultivated in a plastic tunnel in pots with a capacity of 3 l filled with a peat substrate. Titanil ascorbate at a 1:2 molar ratio of Ti: Asc (TiO(C6H7O6)2.2H2O) and liquid titanil ascorbate at a 1.5:1 molar ratio of (obtained in situ—according to the method of patent specification PL 163688 or PL 214628) were applied in a foliar manner twice during the entire cultivation, the concentration of titanium in the working liquid for both formulations was 0.00085% Ti. In two applications, the total titanium dose per hectare was 3.4 g Ti/ha. The experiment was performed in a random block system, combinations were drawn in 4 blocks. There were 20 lettuce plants for each combination.
# The experiment was performed analogously to the titanium complex at a 1:2 or 1.5:1 (Example 20) molar ratio of Ti:ascorbic acid. VO(C6H7O6)2.2H2O was used in the form of foliar spraying twice, vanadium concentration in the working liquid was 0.001% V. In two applications, the total micronutrient dose per hectare was 10 g V/ha.
# Foliar application of VO(C6H7O6)2.2H2O increased the mass of the lettuce head by 14% compared to the control. Furthermore, vanadium ascorbate at a 1:2 molar ratio of V:Asc increased the chlorophyll content. Also, differences were found in the level of flavonoid accumulation between the control object and the combination treated with VO(C6H7O6)2.2H2O.
compound,measurement,setting,value
"O.O.O=C1OC(C(O)CO)C([O-])=C1O.O=C1OC(C(O)CO)C([O-])=C1O.[O]=[V+2] (stereo not drawn) [VO(C6H7O6)2•2H2O, vanadyl ascorbate]",root mass increase compared to plants from the control object,[1]; dose of 5 g V/ha,23%
same,root mass increase compared to plants from the control object,[1]; dose of 10 g V/ha,11%
same,Chlorophyll,[1]; dose of 5 g V/ha (0.001%),35.0 μg/cm^2
same,Dry mass of leaves,[1]; dose of 5 g V/ha (0.001%),8.9%
same,Dry mass of root,[1]; dose of 5 g V/ha (0.001%),2.9%
same,Flavonoids,[1]; dose of 5 g V/ha (0.001%),0.77 μg/cm^2
same,Mass of celery leaves,[1]; dose of 5 g V/ha (0.001%),320.3 g
same,Mass of celery root,[1]; dose of 5 g V/ha (0.001%),90.7 g
same,Chlorophyll,[1]; dose of 10 g V/ha (0.002%),32.0 μg/cm^2
same,Dry mass of leaves,[1]; dose of 10 g V/ha (0.002%),9.5%
same,Dry mass of root,[1]; dose of 10 g V/ha (0.002%),3.1%
same,Flavonoids,[1]; dose of 10 g V/ha (0.002%),0.72 μg/cm^2
same,Mass of celery leaves,[1]; dose of 10 g V/ha (0.002%),317.3 g
same,Mass of celery root,[1]; dose of 10 g V/ha (0.002%),78.5 g
same,stability of the solution among the complexes,[2],most stable
same,effect on the elimination of symptoms caused by diseases affecting the plant spikes,[3],positive effect
same,Chlorophyll,[4],19.1 μg/cm^2
same,Dry mass of root,[4],4.8%
same,Flavonoids,[4],0.88 μg/cm^2
same,Mass of radish root,[4],19.5 g
same,increase of the content of flavonoids compared to the control,[4],almost twice
same,increase of the mass of radish root compared to the control plants,[4],12%
same,effect on the elimination of symptoms caused by fusarium foot and root rot,[5],positive effect
same,Chlorophyll,"iceberg lettuce; iceberg lettuce, 0.001% V",29.6 μg/cm^2
same,Dry mass,"iceberg lettuce; iceberg lettuce, 0.001% V",6.85%
same,Flavonoids,"iceberg lettuce; iceberg lettuce, 0.001% V",0.29 μg/cm^2
same,Mass of lettuce head,"iceberg lettuce; iceberg lettuce, 0.001% V",78.2 g
same,increase of the mass of the lettuce head compared to the control,"iceberg lettuce; iceberg lettuce, 0.001% V",14%
same,Ca content,"iceberg lettuce; lettuce, g/kg d.c.",18.17 g/kg
same,K content,"iceberg lettuce; lettuce, g/kg d.c.",21.84 g/kg
same,Mg content,"iceberg lettuce; lettuce, g/kg d.c.",4.92 g/kg
same,P content,"iceberg lettuce; lettuce, g/kg d.c.",3.42 g/kg
same,S content,"iceberg lettuce; lettuce, g/kg d.c.",2.69 g/kg

# Reference: patent US12022830B2, “Formulations of metal and ascorbic acid complexes, their obtaining and use” (INTERMAG SP. Z O.O., priority 2017, dated 2024)
